In US20140038953A1, “COMPOSITIONS AND METHODS FOR CARDIOVASCULAR DISEASE” (THE GENERAL HOSPITAL CORPORATION, priority 2011, published 2014):
“Also recorded” adds a separate entry of the source. Marks after values point to notes of the source that are not given here.

Key:
Format in all cases: in vivo
[1] = tested on: LDLR−/− mice; assay: Blood biochemical analysis in LDLR−/− mice on high fat diet
Method: Female mice deficient for the low density lipoprotein receptor (LDLR^−/−) on a C57BL/6 background with appropriate control mice mice (eight weeks of age) were obtained from Jackson Laboratories (Bar Harbor, Me.). Animals were fed a western style diet formulated to match Paigen's Atherogenic Rodent Diet (42% fat, 0.15% cholesterol, 19.5% casein; Research Diets Inc., New Brunswick, N.J.).
[…], white blood count, hematocrit, hemoglobin, and platelets were analyzed using a HemaTrue™ Hematology Analyzer (Heska AG, Switzerland). Urea nitrogen, glucose, alkaline phosphatase, total protein, alanine transaminase and creatinine were determined using a Spotchem EZ SP-4430 POCT analyzer (Arkray, Inc., Kyoto, Japan). HDL and LDL levels were determined using a fluorescence quantification kit (K613-100, Biovision, Mountain View, Calif.)

[2] = tested on: LDLR−/− mice; assay: Vascular calcification in LDLR−/− mice on high fat diet (Osteosense, Alizarin red); settings: high fat diet 20 weeks, 2.5 mg/kg ip daily, vs vehicle
Method: Fluorescence reflectance imaging (FRI), was performed as previously described. (Aikawa, E., et al. Osteogenesis associates with inflammation in early-stage atherosclerosis evaluated by molecular imaging in vivo. Circulation 116, 2841-2850 (2007); and Aikawa, E., et al. Multimodality molecular imaging identifies proteolytic and osteogenic activities in early aortic valve disease. Circulation 115, 377-386 (2007).) Animals received 150 μl of OsteoSense 680 and 150 μl of ProSense 750 via tail vein injection 24 hours before euthanasia. After dissection, aortae were subjected to ex vivo near infrared fluorescence reflectance imaging using an Odyssey Imaging System (LI-COR Biotechnology, Lincoln, Nebr.), with integrated signal intensities determined for regions of interest using software version 3.0.16.
Aortas were either immediately embedded and cryopreserved using optimal cutting-temperature medium (Sakura Tissue-Tek, Zoeterwoude, The Netherlands) or fixed in paraformaldehyde and embedded in parafin. The presence of calcification was determined by staining tissue sections with Alizarin red or Von Kossa. Lipid accumulation in tissue sections was visualized by staining with Oil Red O. Liver sections were prepared from paraformaldehyde-fixed tissue and stained with hematoxylin and eosin. […]

[3] = tested on: phospho-Smad 1/5/8; assay: Phospho-Smad 1/5/8 immunohistochemistry in MGP−/− aortas; settings: MGP−/− mice, 2.5 mg/kg once daily IP day 1 to 28
Method: MGP−/− mice were treated with either vehicle or the small molecule BMP type I receptor inhibitor compound 13 (2.5 mg/kg once daily IP) from day 1 to 28. Compound 13 is used as a BMP inhibitor positive control compound in these experiments. Whole aortas were harvested for phospho-Smad 1/5/8 (P-Smad) immunohistochemistry, a marker of BMP signaling, and for Alizarin Red staining of calcium. Osteogenic activity in aortas was visualized ex vivo by the uptake of a fluorescent bisphosphonate imaging probe. MGP−/− mice were also treated with vehicle or compound 13 to ascertain if inhibition of BMP signaling could impact survival, using Kaplan-Meier and Cox regression analysis. […] To further quantify aortic calcium, a fluorescent bisphosphonate agent that specifically binds to hydroxyapatite (OsteoSense 680 nm, Perkin Elmer) was used. (Aikawa E, et al. Multimodality molecular imaging identifies proteolytic and osteogenic activities in early aortic valve disease. Circulation. 2007; 115(3):377-386 and Zaheer A, et al. In vivo near-infrared fluorescence imaging of osteoblastic activity. Nature biotechnology. 2001; 19(12):1148-1154.) MGP−/− mice at 27 days of age treated with vehicle or compound 13 received OsteoSense via tail vein, and 24 h later, aortas were harvested for imaging. […]

[4] = LDLR−/− mice, HFD 20 weeks, in words
[5] = female LDLR−/− mice, high fat diet 6 weeks, compound 13 2.5 mg/kg ip daily, ALK3-Fc 2 mg/kg ip every other day, mean ± SEM
[6] = female LDLR−/− mice, high fat diet 20 weeks, 2.5 mg/kg ip daily, mean ± SEM

In the case of c1ccc2c(-c3cnn4cc(-c5ccc(N6CCNCC6)cc5)cnc34)ccnc2c1 [Compound 13, 4-[6-(4-piperazin-1-ylphenyl)pyrazolo[1,5-a]pyrimidin-3-yl]quinoline], the “serum alanine transaminase (ALT) levels vs vehicle” value ([1]; LDLR−/− mice on HFD, in words) is reported as “reduced”, the “serum alkaline phosphatase (ALP) levels vs vehicle” value ([1]; LDLR−/− mice on HFD, in words) is reported as “reduced” and the “HDL cholesterol levels vs vehicle” value [1, 4] is reported as “not altered”. The “serum LDL cholesterol levels vs vehicle” value [1, 4] was “lower serum LDL cholesterol levels”, the “total cholesterol levels vs vehicle” value [1, 4] was “reduced total cholesterol levels” and the “serum LDL cholesterol levels vs vehicle” value ([1]; LDLR−/− mice, HFD 20 weeks, in words, listed as compound 13) was “reduced total cholesterol levels and LDL levels”. For the same compound, the Alanine transaminase [1, 5] was 233 ± 56 IU/L, the Alkaline phosphatase [1, 5] was 112 ± 20 IU/L and the Blood urea nitrogen [1, 5] was 24 ± 2 mg/dL. For the same compound, the Cholesterol [1, 5] was 1553 ± 77*^,§ mg/dl, the Creatinine [1, 5] was 0.5 ± 0.1 mg/dL and the Glucose [1, 5] was 259 ± 20 mg/dL. It also gave a Hemoglobin [1, 5] of 12.9 ± 1.5 g/dL, a Total protein [1, 5] of 5.1 ± 0.1 g/dL and a Triglycerides [1, 5] of 112 ± 15 mg/dL. The Alanine transaminase [1, 6] was 130 ± 21‘ IU/L, the Alkaline phosphatase [1, 6] was 84 ± 11 IU/L and the Blood urea nitrogen [1, 6] was 25 ± 2 mg/dL. The Cholesterol [1, 6] was 1401 ± 87 mg/dL, the Creatinine [1, 6] was 0.4 ± 0.0 mg/dL and the Glucose [1, 6] was 230 ± 19 mg/dL. It also gave an HDL [1, 6] of 73.8 ± 26.5 mg/dL, a Hemoglobin [1, 6] of 12.9 ± 0.8 g/dL and an LDL [1, 6] of 1166.3 ± 257.3 mg/dL. The Total protein [1, 6] was 4.3 ± 0.4 g/dL, the Triglycerides [1, 6] was 135 ± 16 mg/dL and the “vascular calcification / osteogenic activity (fluor-labeled bisphosphonate uptake, Alizarin red)” value [2] was “significantly less abundant; also recorded: reduced vascular calcification throughout the aortae; also recorded: severely diminished evidence of osteogenesis”. For the same compound, the “vascular calcification / osteogenic activity (fluor-labeled bisphosphonate uptake, Alizarin red)” value ([2]; listed as BMP inhibitor positive control compound) was “can reduce vascular calcification”, the “aortic P-Smad (Smad 1/5/8 phosphorylation)” value ([3]; 2.5 mg/kg) was “reduced aortic P-Smad” and the “aortic P-Smad (Smad 1/5/8 phosphorylation)” value ([3]; listed as compound 13, 2.5 mg/kg) was “reduced BMP signaling”.
